Assay results published in BindingDB's records for doi:10.1016/j.bmcl.2014.06.076 (Genentech, 2014).

What follows are molecules tested against L-lactate dehydrogenase A chain (Homo sapiens, UniProt P00338) (assay: Inhibition of human recombinant carboxy-terminal His-tagged LDHA by UV endpoint assay).

SMILES	IC50
N#Cc1ccccc1SC1=C(O)CC(c2c(Cl)cccc2Cl)CC1=O (centres undefined)	> 100 µM
Cc1ccc2nc(SC3=C(O)CC(c4ccccc4)CC3=O)[nH]c2c1 (centres undefined)	2.1 µM
O=C1CC(c2c(Br)cccc2Br)CC(O)=C1Sc1ccccc1Cl (centres undefined)	> 100 µM
O=C1CC(c2cccc(Cl)c2)CC(O)=C1Sc1ccccc1Cl (centres undefined)	> 100 µM
N#Cc1ccccc1SC1=C(O)CC(c2ccc(Cl)cc2)CC1=O (centres undefined)	> 100 µM
O=C1CC(c2ccccc2)CC(O)=C1Sc1ncc[nH]1 (centres undefined)	0.87 µM
Cc1cccc(C)c1C1CC(=O)C(Sc2ccccc2Cl)=C(O)C1 (centres undefined)	> 100 µM
O=C1CC(c2c(Cl)ccc(Br)c2Cl)CC(O)=C1Sc1ccccc1Cl (centres undefined)	> 100 µM
O=C1CC(c2ccc(Cl)cc2)CC(O)=C1Sc1ccccc1Cl (centres undefined)	> 100 µM
N#Cc1ccccc1SC1=C(O)CC(c2c(Cl)cccc2C(F)(F)F)CC1=O (centres undefined)	> 100 µM
N#Cc1ccccc1SC1=C(O)CC(c2c(Br)cccc2Br)CC1=O (centres undefined)	> 100 µM
Cc1cc(C)c(SC2=C(O)CC(c3ccccc3)CC2=O)nc1C#N (centres undefined)	5.6 µM
Cc1cccc(C)c1C1CC(=O)C(Sc2ccccc2C#N)=C(O)C1 (centres undefined)	> 100 µM
N#Cc1ccccc1SC1=C(O)CC(c2cccc(Cl)c2)CC1=O (centres undefined)	> 100 µM
COc1ccc(C2CC(=O)C(Sc3ccccc3Cl)=C(O)C2)cc1 (centres undefined)	> 100 µM
O=C1CC(c2ccccc2Cl)CC(O)=C1Sc1ccccc1Cl (centres undefined)	> 100 µM
O=C1CC(c2c(Cl)cccc2C(F)(F)F)CC(O)=C1Sc1ccccc1Cl (centres undefined)	> 100 µM
N#Cc1ccccc1SC1=C(O)CC(c2ccccc2Cl)CC1=O (centres undefined)	> 100 µM
O=C1CC(c2c(F)cccc2F)CC(O)=C1Sc1ccccc1Cl (centres undefined)	> 100 µM
O=C1CC(c2c(F)cccc2Cl)CC(O)=C1Sc1ccccc1Cl (centres undefined)	> 100 µM
O=C1CC(c2c(Cl)cccc2Br)CC(O)=C1Sc1ccccc1Cl (centres undefined)	> 100 µM
N#Cc1ccccc1SC1=C(O)CC(c2c(Cl)cccc2Br)CC1=O (centres undefined)	> 100 µM
CSc1nnc(SC2=C(O)CC(c3ccccc3)CC2=O)s1 (centres undefined)	7.4 µM
O=C1CC(c2c(C(F)(F)F)cccc2C(F)(F)F)CC(O)=C1Sc1ccccc1Cl (centres undefined)	> 100 µM
